Laboratory results taken from PMC10319809, “Chronic UCN2 treatment desensitizes CRHR2 and improves insulin sensitivity” (Nature Communications, 2023).
Where “and” joins values, the source holds several entries; their conditions need not be identical. Identical values can stand only once. Where no end group is shown, it is not given here.

What was measured:
male mice [1] = assay: Glucose tolerance test (oGTT / IPGTT), blood glucose; format: in vivo, mouse
Procedure: (§1) All metabolic tests were performed using standard protocols on male littermates (aged: 10–14 weeks). For glucose tolerance tests (GTTs), animals were fasted for 8 h with ad libitum access to water. Fasting glucose measurements were taken before […] oral glucose dose. Blood glucose measurements were taken via tail nick using the AlphaTRAK 2 Glucose Monitoring System (Zoetis, Parsippany-Troy Hills, NJ) at 10, 30, 60, and 120 min after dose. Blood was collected for insulin measurement in EDTA tubes (Becton, Dickinson and Company, Franklin Lakes, NJ) and centrifuged to collect plasma (2000 g for 10 min at 4 °C), which was stored at −80 °C until analysis at 10, 30, 60, and 120 min after dose. Insulin levels were measured using an Ultrasensitive Mouse Insulin ELISA (ALPCO, Salem, NH), according to manufacturer’s instructions. For insulin tolerance tests (ITTs), animals were fasted for 8 h and blood glucose was measured before (0 min) and at 30, 60, 90, and 120 min following IP injection of 0.75 IU/kg of insulin (Humulin R, Eli Lilly, Indianapolis, IN). […]

[2] = Circulating (serum/plasma) UCN2 by ELISA; format: in vivo, mouse
Procedure: Plasma UCN2 and UCN3 measurements were made via ELISA according to manufacturer’s instructions (Kamiya Biomedical Company, Seattle, WA). Blood was collected via intracardiac stick. For ob/ob and db/db studies, blood was collected during ad lib feeding. For acute UCN2 dosing, blood was collected 20 min after dosing with UCN2 (Bachem, Bubendorf, Switzerland) dissolved in saline.

mice = assay: Food intake studies; format: in vivo, mouse
Procedure: For acute studies, animals were singly housed and injected IP with saline or 1 mg/kg UCN2 (source). Food intake for the next 24 h was determined by measuring food weight in ceramic bowls within the cage. For the chronic studies, animals were singly housed and injected with Vehicle, EGFP.AAV, or UCN2.AAV. Food weight was measured in ceramic bowls every 24 h for 7 days.

CRHR2 alpha = target: T1, CRHR2 alpha (Homo sapiens, UniProt Q13324); assay: HTRF cAMP assay in HEK-TREX-CRHR2 alpha cells, with or without UCN2 pre-treatment; format: cell-based; settings: n = 3
T1 construct: host or cells: HEK-TREX-CRHR2 alpha cells, non-induced
T1 sequence (Q13324 1-411): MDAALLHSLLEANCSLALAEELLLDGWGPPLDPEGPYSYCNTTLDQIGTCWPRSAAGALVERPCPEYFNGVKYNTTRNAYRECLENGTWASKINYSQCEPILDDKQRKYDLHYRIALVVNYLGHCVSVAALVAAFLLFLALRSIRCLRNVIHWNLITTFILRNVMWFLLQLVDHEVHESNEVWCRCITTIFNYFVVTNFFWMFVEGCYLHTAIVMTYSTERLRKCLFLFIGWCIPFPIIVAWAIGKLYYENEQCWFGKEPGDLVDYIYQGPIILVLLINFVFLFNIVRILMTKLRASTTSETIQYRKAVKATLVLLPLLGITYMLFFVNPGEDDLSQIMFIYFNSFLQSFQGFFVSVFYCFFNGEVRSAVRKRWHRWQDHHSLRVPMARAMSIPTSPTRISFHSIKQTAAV
Procedure: To determine whether CRHR2 functional desensitization in response to UCN2 occurred tissue-autonomously, we turned to CRHR2-transfected HEK 293 cells.
To measure cell-based CRHR2 agonist activity a HTRF (Homogenous Time-Resolved Fluorescence) cAMP detection kit (Cisbio cAMP dynamic 2 assay kit) was performed in non-induced HEK-TREX-CRHR2 alpha cells (Fisher Scientific). Cells were plated one day before the assay in 384-well plates at 1500 cells/well and assayed in adherent mode by removing the media, patting on paper towel and adding 10 µl of 1 µM of UCN2 or vehicle control for 1 h. Cells were gently washed 3 times with wash buffer and rested for 6 h in incubator. Following rest, cells were restimulated with titrating concentrations of UCN2 with IBMX, at a final concentration of 250 µM. Reactions continued for 30 min at 37 °C followed by addition of detection reagents and a one-hour minimum incubation at room temperature. HTRF, a competitive immunoassay, produces a fluorescence signal read with an Envision multi-plate reader using an excitation of 330 nm and emissions of 615 and 665 nm. By interpolation from a cAMP standard curve, raw data were converted to nm cAMP and then expressed as percent effect of 1 µM UCN2 in vehicle control pretreatment conditions.

male mice [3] = assay: Plasma insulin during glucose tolerance test; format: in vivo, mouse; settings: 1 mg/kg IP UCN2
Procedure: as §1

IVLSLDVPIGLLQILLEQARARAAREQATTNARILARVGHC-NH2 (C-terminus assumed) [UCN2, Urocortin 2]
glucose tolerance after acute UCN2 in UCN2.AAV animals (male mice [1]; UCN2.AAV animals injected acutely with UCN2): worsened glucose tolerance
glucose tolerance in oGTT (male mice [1]; oGTT twenty minutes after 1 mg/kg IP UCN2): glucose intolerance
Serum [UCN2] ([2]; WT mice, 20 min after 1 mg/kg UCN2 IP, individual animals (Fig. 2A)): -7.638 log[M] and -7.693 log[M] and -7.457 log[M] and -7.301 log[M] and -7.207 log[M] and -7.27 log[M] and -7.25 log[M] and -7.2975 log[M]
circulating concentration of UCN2, average ([2]; mice, single IP 1 mg/kg, 20 min after injection, n = 8): −7.4 log[M]
level at time molar at 20 min ([2]; mouse, plasma, mice, single IP 1 mg/kg, 20 min after injection, n = 8, read-out: circulating concentration of UCN2, average): 40 nM
Food Intake (mice; single IP dose 1 mg/kg UCN2, next 24 h, individual animals (Fig. 2K), 1 mg/kg): 0.27 g and 0.3 g and 0.24 g and 0.15 g and 0.38 g and 0.46 g and 0.59 g
food intake following UCN2 dosing (mice; single dose 1 mg/kg IP): decrease in food intake
cAMP response to subsequent UCN2 after UCN2 pre-treatment (CRHR2 alpha; 1 µM UCN2 for 1 h, wash, 6 h rest, restimulation): significantly blunts the cAMP activation response
cAMP response to increasing concentrations (CRHR2 alpha; CRHR2-transfected HEK 293 cells, 30 min at 37 °C, IBMX 250 µM): increases in a dose-dependent manner
plasma insulin levels during the oGTT versus vehicle (male mice [3]): No significant difference
